Literature values, collected in patent US20190029235A1, “EFFICIENT, SCALABLE PATIENT-DERIVED XENOGRAFT SYSTEM BASED ON A CHICK CHORIOALLANTOIC MEMBRANE (CAM) IN VIVO MODEL” (Baylor College of Medicine, priority 2015, published 2019).

Legend:
[1] = system: BCM-2147 breast cancer PDX line; settings: PDX line BCM-2147, tumor source Pre-treat Bx, mouse-based breast cancer PDX
[2] = system: BCM-6257 breast cancer PDX line; settings: PDX line BCM-6257, tumor source Pre-treat Bx, mouse-based breast cancer PDX
[3] = system: BCM-4013 breast cancer PDX line; settings: PDX line BCM-4013, tumor source Pre-treat Bx, mouse-based breast cancer PDX

Compound | Treatment Response [1] | Treatment Response [2] | Treatment Response [3]
N.N.O=C([O-])C1(C(=O)[O-])CCC1.[Pt+2] [Carboplatin, carboplatin] | Sensitive | Sensitive | Resistant
CC(=O)O[C@@]12CO[C@@H]1C[C@H](O)[C@@]1(C)C(=O)[C@H](O)C3=C(C)[C@@H](OC(=O)[C@H](O)[C@@H](NC(=O)OC(C)(C)C)c4ccccc4)C[C@@](O)([C@@H](OC(=O)c4ccccc4)[C@H]21)C3(C)C [Docetaxel, docetaxel] | Resistant | Sensitive | Resistant
COc1cccc2c1C(=O)c1c(O)c3c(c(O)c1C2=O)C[C@@](O)(C(=O)CO)C[C@@H]3O[C@H]1C[C@H](N)[C@H](O)[C@H](C)O1 [Doxorubicin, doxorubicin] | Resistant | Resistant | Resistant
